According to US20250289795A1, “METHOD FOR PREPARATION OF COMPOUND POSSESSING 5-PENTYLFURFURAL (5-PF) STRUCTURE AND USE THEREOF” (FUGENBIO CO., LTD., priority 2022, published 2025):

Experiments:
[1] = tested on: B16F10 cells; conditions: cited from earlier work
[2] = tested on: Ob/Ob mice; assay: antidiabetic effect in Ob/Ob mice; type: in vivo
Procedure: In order to confirm the antidiabetic effect of 5-PF-Q, the changes, due to the administration of 5-PF-Q, in body weight, food intake, reduction of blood sugar levels, toxicity, and insulin resistance were measured.
The mice were divided into group A (weight 35 g or more) and group B (weight 35 g or less) based on body weight. According to the flowchart below, each group was assigned to a metformin (200 mg/kg) administration group (positive control group) and a 5-PF-Q (15 mg/kg) administration group (experimental group) and administered orally for 3 weeks. After the 3-week administration period, blood sugar levels were measured by performing an oral glucose tolerance test (OGTT), and the mice were sacrificed 3 weeks thereafter. OGTT was also performed at the same time point for the Ob/Ob vehicle group (negative control group) that was not administered with the compound, and non-diabetic C57BL/6 mice, and they were sacrificed.

[3] = tested on: AMP-activated protein kinase (AMPK); assay: AMPK expression in differentiated C2C12 cells; type: cell-based; conditions: C2C12, positive control 90 μg/mL
Procedure: In order to confirm the effect of 5-PF-Q on the expression of AMP-activated protein kinase (AMPK), differentiated muscle cell C2C12 cells were treated with 5-PF-Q at 10 μg/mL, 50 μg/mL, and 100 μg/mL for 24 hours, respectively, as shown in FIG. 7 (10% gel, 20 μg PTN, 1° ab pAMPK 1:3,000, tAMPK 1:1,000/2° ab 1:4,000).

| SMILES | cytotoxicity [1] | inhibition of melanin production IC50 [1] [µg/mL] | insulin resistance compared to Ob/Ob vehicle group ([2]; Ob/Ob mice, 200 mg/kg) | OGTT blood sugar reduction pattern ([2]; group A (35 g or more), 200 mg/kg oral for 3 weeks) | expression of AMPK (pAMPK/tAMPK) [3] |
| --- | --- | --- | --- | --- | --- |
| CCCCCc1ccc(C=O)o1 [5-pentyl-2-furaldehyde] | without cytotoxicity | 8.4 | – | – | – |
| CN(C)C(=N)N=C(N)N [metformin] | – | – | tendency to improve insulin resistance | blood sugar reduction pattern was similar | clearly observed |
